Structure (SMILES): Cl.N=C(N)Nc1ccc(C(=O)O)cc1
- solubility (mole fraction) (in ethanol, 294.95 K): 0.00291
- solubility (mole fraction) (in ethanol, 300.05 K): 0.00316
- solubility (mole fraction) (in ethanol, 305.95 K): 0.00343
- solubility (mole fraction) (in ethanol, 310.25 K): 0.00387
- solubility (mole fraction) (in ethanol, 315.25 K): 0.0042
- solubility (mole fraction) (in ethanol, 320.25 K): 0.00478
- solubility (mole fraction) (in ethanol, 325.55 K): 0.00514
- solubility (mole fraction) (in ethanol, 330.65 K): 0.00558
- solubility (mole fraction) (in isopropanol, 296.35 K): 0.0008
- solubility (mole fraction) (in isopropanol, 301.75 K): 0.00106
- solubility (mole fraction) (in isopropanol, 307.55 K): 0.00127
- solubility (mole fraction) (in isopropanol, 312.95 K): 0.00149
- solubility (mole fraction) (in isopropanol, 317.35 K): 0.00158
- solubility (mole fraction) (in isopropanol, 321.35 K): 0.0017
- solubility (mole fraction) (in isopropanol, 325.15 K): 0.00186
- solubility (mole fraction) (in isopropanol, 328.25 K): 0.00201
- solubility (mole fraction) (in methanol, 297.95 K): 0.0118
- solubility (mole fraction) (in methanol, 302.45 K): 0.0128
- solubility (mole fraction) (in methanol, 307.45 K): 0.0143
- solubility (mole fraction) (in methanol, 312.95 K): 0.0155
- solubility (mole fraction) (in methanol, 317.45 K): 0.017
- solubility (mole fraction) (in methanol, 321.25 K): 0.0181
- solubility (mole fraction) (in methanol, 324.85 K): 0.0192
- solubility (mole fraction) (in methanol, 328.55 K): 0.0203
- solubility (mole fraction) (in n-butanol, 293.25 K): 0.00103
- solubility (mole fraction) (in n-butanol, 296.85 K): 0.00124
- solubility (mole fraction) (in n-butanol, 300.05 K): 0.00137
- solubility (mole fraction) (in n-butanol, 303.15 K): 0.00149
- solubility (mole fraction) (in n-butanol, 307.55 K): 0.00163
- solubility (mole fraction) (in n-butanol, 314.75 K): 0.00182
- solubility (mole fraction) (in n-butanol, 320.15 K): 0.00194
- solubility (mole fraction) (in n-butanol, 327.15 K): 0.00216
- solubility (mole fraction) (in n-pentanol, 292.05 K): 0.00042
- solubility (mole fraction) (in n-pentanol, 296.55 K): 0.00071
- solubility (mole fraction) (in n-pentanol, 301.75 K): 0.0008
- solubility (mole fraction) (in n-pentanol, 310.05 K): 0.00096
- solubility (mole fraction) (in n-pentanol, 316.75 K): 0.00103
- solubility (mole fraction) (in n-pentanol, 322.95 K): 0.00114
- solubility (mole fraction) (in n-pentanol, 327.95 K): 0.00121
- solubility (mole fraction) (in n-pentanol, 334.15 K): 0.00136
- solubility (mole fraction) (in n-propanol, 295.05 K): 0.00368
- solubility (mole fraction) (in n-propanol, 300.75 K): 0.00436
- solubility (mole fraction) (in n-propanol, 305.75 K): 0.00495
- solubility (mole fraction) (in n-propanol, 309.95 K): 0.00564
- solubility (mole fraction) (in n-propanol, 314.55 K): 0.00633
- solubility (mole fraction) (in n-propanol, 319.35 K): 0.00716
- solubility (mole fraction) (in n-propanol, 322.85 K): 0.00753
- solubility (mole fraction) (in n-propanol, 327.75 K): 0.00815
- solubility (mole fraction) (in water, 298.05 K): 0.00532
- solubility (mole fraction) (in water, 304.55 K): 0.00685
- solubility (mole fraction) (in water, 309.95 K): 0.00884
- solubility (mole fraction) (in water, 314.85 K): 0.0108
- solubility (mole fraction) (in water, 318.55 K): 0.0129
- solubility (mole fraction) (in water, 323.55 K): 0.0155
- solubility (mole fraction) (in water, 328.85 K): 0.018
- solubility (mole fraction) (in water, 333.65 K): 0.0218

Source: BigSolDB 2.1
